These are literature values, as cited in patent EP4473960A1, “VACCINE FORMULATION COMPRISING A SURFACTANT THAT DOES NOT COMPRISE AN ESTER BOND” (Vaxxinova Nederland BV, priority 2023, dated 2024).

Where [1] appears, read: Table 3A, HLB values of surfactants discussed.
Setting [2] is: Table 2, surfactants without ester bond.

Where two headings read alike, the source gives them in different places.

For Sorbitan palmitate [Span 40], under setting [1], the HLB is recorded as 6.7.

Take “Polyoxyethylen (6) cetylstearylether [Cremophor A6]”: the HLB reads like this: under setting [2], 10-12; under setting [1], 10 - 12.

Take Sorbitan tristearate [Span 65]: the HLB under setting [1] is 2,2.

For the substance “Polyoxyethylen (20) cetylstearylether [Cremophor A20]”, the HLB under setting [2] is given as 14-16.

In the case of Polyoxyethylen (2) oleylether [Brij 92], the HLB reads like this: under setting [2], 4,9; under setting [1], 4,9.

On to “Polyoxyethylen (2) stearylether [Brij 72]”, for which the HLB under setting [2] was 4,9 and the HLB under setting [1] was 4,9.

Polyoxyethylen (9) laurylether [Thesit]: the HLB under setting [2] is given as 11.2.

With Polyoxyethylen (10) tridecylether, under setting [2], the HLB was 13.7.

Consider Sorbitan stearate [Span 60], for which, under setting [1], the HLB is 4,7.

On to “Polyoxyethylen (25) cetylstearylether [Cremophor A25]”, for which the HLB under setting [2] is reported as 15-17 and the HLB under setting [1] is recorded as 15-17.

In the case of Polyoxyethylen (10) monodecylether, the HLB under setting [2] is recorded as 14.6.

Regarding “Polyoxyethylen (4) laurylether [Brij 30]”, the HLB was 9,7 under setting [2] and 9,7 under setting [1].

Polyoxyethylen (2) cetylether [Brij 52]: the HLB under setting [2] is reported as 5,3 and the HLB under setting [1] is reported as 5,3.

As to Sorbitan monooleate [Span 80], the “Hydrophilic-Lipophilic Balance (HLB)” value is recorded as 4,3. Under setting [1], the HLB is recorded as 4,3.
